From patent US20250084074A1, “SUBSTITUTED HETEROCYCLES AS HSET INHIBITORS” (MERCK PATENT GMBH, priority 2022, published 2025) come the findings set out here.

pIC50: −log10 of the molar value. Counter-ions that a name gives are not always drawn.

As a reminder, the pIC50 is −log10 of the IC50, conventionally taken in molar units.

The target of this assay is HSET full length protein (Homo sapiens (Human), UniProt Q9BW19). Briefly: HSET ADP-Glo Assay S - 3 μM ATP. It counts as biochemical. The note with it: 5 nM HSET, 70 μg/mL microtubule, 80 min at rt, read-out: COMBINED HSET ADP GLO IC50. Here is the method: Example 281: Testing compounds of the present invention for inhibitory activities against HSET—HSET ADP-Glo Assay S—3 μM ATP
Sequence of HSET full length protein (Q9BW19 whole entry): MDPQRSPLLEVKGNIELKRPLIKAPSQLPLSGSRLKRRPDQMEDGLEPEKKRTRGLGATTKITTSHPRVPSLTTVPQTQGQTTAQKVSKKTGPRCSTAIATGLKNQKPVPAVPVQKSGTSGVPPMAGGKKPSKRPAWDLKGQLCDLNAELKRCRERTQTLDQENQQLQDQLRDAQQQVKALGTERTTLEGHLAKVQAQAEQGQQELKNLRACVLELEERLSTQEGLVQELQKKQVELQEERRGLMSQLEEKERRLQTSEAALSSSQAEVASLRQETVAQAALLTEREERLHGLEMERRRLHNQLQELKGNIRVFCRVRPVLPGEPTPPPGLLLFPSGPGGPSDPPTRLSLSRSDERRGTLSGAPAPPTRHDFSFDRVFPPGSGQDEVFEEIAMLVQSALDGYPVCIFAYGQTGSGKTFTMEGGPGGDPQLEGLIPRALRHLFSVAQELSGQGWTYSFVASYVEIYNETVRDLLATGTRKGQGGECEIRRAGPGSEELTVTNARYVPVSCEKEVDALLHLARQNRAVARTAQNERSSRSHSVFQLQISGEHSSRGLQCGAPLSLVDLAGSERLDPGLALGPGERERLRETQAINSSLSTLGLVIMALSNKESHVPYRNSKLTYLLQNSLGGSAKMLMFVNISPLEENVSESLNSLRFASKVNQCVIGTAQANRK
Reagents: (+4° C. Storage) • Paclitaxel Prod.No.TXD.01 2 mM in DMSO (from Universal Biologicals Cambridge). • Tubulin Protein (Pre-formed Microtubules): Bovine Brain Prod.No.MT001-XL Lot.025 10 mg/mL (from Universal Biologicals Cambridge).
Reagents: (−80° C. Storage) • MT001-XL—Tubulin Protein (Pre-formed Microtubules): Bovine Brain—reconstituted in buffer—15 mM PIPES pH7, 1 mM MgCl2, 20 μM paclitaxel (aliquots at 10 mg/mL) from Universal Biologicals Cambridge. • HSET full length protein—Current batch is FL HSET Prep1 (SEQ-000096_002-01_01) • Buffer is 20 mM Hepes pH 7.5, 200 mM NaCl, 2 mM TCEP, 5% glycerol (5 μL aliquots at 10.2 μM)
Reagents: (−20° C. Storage) • ADP-Glo Kinase Assay kit (Promega Prod.No.V9102) 10,000 assay points • ADP-Glo reagent (50 mL), Kinase Detection Reagent (100 mL), and Ultrapure ATP (10 mM) aliquoted
Buffer Stocks (filtered and stored at rt for up to 1 month) • HEPES acid, 4-(2-Hydroxyethyl)piperazine-1-ethanesulfonic acid MW:238, 238.3 mg/mL=1 M • 7149 mg/30 mL=1M (pH to 6.8 with 5 M NaOH) • PIPES, 1,4-Piperazinediethanesulfonic acid MW: 302.4, 30.24 mg/mL=100 mM; 907.2 mg/30 mL=100 mM (pH to 7 with 5 M NaOH, white cloudy suspension until the pH changes) • EGTA, Ethylene glycol-bis(2-aminoethylether)-N,N,N′,N′-tetraacetic acid MW: 380.35, 38.035 mg/mL=100 mM • 1901.75 mg/50 mL=100 mM (pH to ˜7 with 5 M NaOH)—takes a long time to get into solution and for pH to stabilize • Triton-X-100, MW: 625, 62.5 mg/mL=100 mM (6.25% w/v) (viscous, pipette Triton X-100 with a Gilson using a trimmed pipette tip)
ECHO Protocol • Create an ECHO intermediate plate by adding 24.5 μL DMSO to columns 1 & 2, and 40 μL DMSO to columns 23 & 24 of an ECHO 384PP plate • Add 100 nL of compound/DMSO per well in 384-well Proxi-Plate Plus (white) —Perkin Elmer Cat #6008289 using ECHO dose response protocol 100 nL normal to proxi_8pt_200 uM.
Assay buffer (Keep on ice): HEPES pH 6.8, MgCl2, EGTA, Triton X-100, DTT, HPLC H2O Microtubule Working Solution (3.2): • 1 ml PM buffer: PIPES pH 7.0, MgCl2, HPLC H2O, Paclitaxel, mix well, store at rt • Then add 26.4 μL of 10 mg/ml microtubules to 724 μL of the above PM buffer to make 750 μL of microtubule working solution @350 μg/mL microtubules (store at rt)
Stock HSET enzyme solution (3.1)—keep on ice • Add 1.33 μL 10.2 μM HSET Prepi (SEQ-000096_002-01_01) to 1358 μL assay buffer to make a 10 nM stock for a 5 nM final assay concentration (1/1020 dilution).
HSET/Microtubule working solution (3.3) • Mix solutions 3.1 and 3.2 in the ratio of 2.5:1 (1214.3 μL 3.1+485.7 μL 3.2) keep at rt for 15 min • 3.2 is diluted 3.5-fold, 3.1 is diluted 1.4-fold BLANK solution is 357 μL 2XAB+143 μL microtubule working solution 3.2. (Same proportions as HSET/Microtubule working solution (3.3))
ATP Working solution is 1 μL 10 mM UltraPure ATP (Promega kit)+999 μL ddH20 gives 10 μM ATP for a 3 μM final assay concentration, stored on ice.
Assay procedure in PROXIPLATE 384 PLUS WHITE (Perkin Elmer) plates (Remove 2.4 mL ADP Glo and 4.5 mL Kinase detection reagent from freezer to warm up to rt) • Add 3.5 μL BLANK solution to assay plate (column 12) • Add 3.5 μL HSET/Microtubule solution (3.3) (columns 1-11 & 13-24) • Centrifuge at 1000 rpm for 1 min • (pre-incubate enzyme and compound for 10 min)
Add 1.5 μL of 10 μM ATP to start reaction gives a final [HSET] of 5 nM, [ATP] of 3 μM and [microtubule] of 70 μg/mL, centrifuge at 1000 rpm for 1 min and incubated at rt for 80 min.
After the 80-minute incubation, stop reaction by adding 5 μL ADP-Glo reagent to all wells. Centrifuge for 1 min at 1000 rpm, leave for 40 min at rt.
In the dark/away from direct light, add 10 μL Kinase Detection Reagent (KDR) to all wells, Seal plate with a Topseal (Perkin Elmer Cat #6050185) and centrifuge as above, leave for 40 min at rt covered in foil. […]
In general terms: In ADP-Glo the light output rises with the ADP produced.
Regarding `Cc1nc(-c2cccc(C(=O)NCCC(=O)Nc3nc(C)c(C(=O)OCC4CC4)s3)c2)no1` [Example 35, Cyclopropylmethyl 4-methyl-2-(3-(3-(5-methyl-1,2,4-oxadiazol-3-yl)benzamido)propanamido)thiazole-5-carboxylate], the negative logarithm of the IC50 (pIC50) was 7.51.

As to `CCOC(=O)c1sc(NC(=O)CCNC(=O)c2cccc(-c3noc(CC)n3)c2)nc1C` [Example 36, Ethyl 2-(3-(3-(5-ethyl-1,2,4-oxadiazol-3-yl)benzamido)propanamido)-4-methylthiazole-5-carboxylate], the pIC50 was 5.68.

For the molecule `CCOC(=O)c1sc(NC(=O)CCNC(=O)c2cccc(-c3nnc(C)o3)c2)nc1C` [Example 37, Ethyl 4-methyl-2-(3-(3-(5-methyl-1,3,4-oxadiazol-2-yl)benzamido)propanamido)thiazole-5-carboxylate], the negative logarithm of the IC50 (pIC50) is 6.59.

On to `CCOC(=O)c1sc(NC(=O)CCNC(=O)c2cccc(-c3nnn(C)n3)c2)nc1C` [Example 38, Ethyl 4-methyl-2-(3-(3-(2-methyl-2H-tetrazol-5-yl)benzamido)propanamido)thiazole-5-carboxylate], for which the pIC50 was 7.57.

For the molecule `Cc1nc(NC(=O)CCNC(=O)c2cccc(-c3nnn(C)n3)c2)sc1C(=O)OC(C)(C)C` [Example 39, tert-Butyl 4-methyl-2-[3-[[3-(2-methyltetrazol-5-yl)benzoyl]amino]propanoylamino]thiazole-5-carboxylate], the negative logarithm of the IC50 (pIC50) is 8.10.

As for `Cc1nc(NC(=O)CCNC(=O)c2cccc(-c3nnn(C)n3)c2)sc1C(=O)OC(C)C` [Example 40, Isopropyl 4-methyl-2-[3-[[3-(2-methyltetrazol-5-yl)benzoyl]amino]propanoylamino]thiazole-5-carboxylate], the pIC50 is 8.00.

In the case of `Cc1nc(NC(=O)CCNC(=O)c2cccc(-c3nnn(C)n3)c2)sc1C(C)(C)C` [Example 41, N-[3-[(5-tert-butyl-4-methyl-thiazol-2-yl)amino]-3-oxo-propyl]-3-(2-methyltetrazol-5-yl)benzamide], the pIC50 is 6.74.

On to `CCOC(=O)c1cccc(C(=O)NCCC(=O)Nc2nc(C)c(C(=O)OCC)s2)c1` [Example 42, Ethyl 2-(3-(3-(ethoxycarbonyl)benzamido)propanamido)-4-methylthiazole-5-carboxylate], for which the negative-log IC50 (pIC50) was 5.75.

Take `CCOC(=O)c1sc(NC(=O)CCNC(=O)c2cc(C)cc(-c3noc(C)n3)c2)nc1C` [Example 43, Ethyl 4-methyl-2-(3-(3-methyl-5-(5-methyl-1,2,4-oxadiazol-3-yl)benzamido)propanamido)thiazole-5-carboxylate]: the pIC50 is 7.36.

`CCCOC(=O)c1sc(NC(=O)CCNC(=O)c2cc(C(=O)OC)cc(-c3noc(C)n3)c2)nc1C` [Example 44, Propyl 2-(3-(3-(methoxycarbonyl)-5-(5-methyl-1,2,4-oxadiazol-3-yl)benzamido)propanamido)-4-methylthiazole-5-carboxylate]: the negative logarithm of the IC50 (pIC50) was 6.55.

Consider `CCOC(=O)c1sc(NC(=O)CCNc2nccc3ccc(-c4noc(C)n4)cc23)nc1C` [Example 45, Ethyl 4-methyl-2-[3-[[7-(5-methyl-1,2,4-oxadiazol-3-yl)-1-isoquinolyl]amino]propanoylamino]thiazole-5-carboxylate], for which the pIC50 is 8.30.

On to `COC(=O)c1sc(NC(=O)CCNc2nccc3ccc(-c4noc(C)n4)cc23)nc1C` [Example 46, Methyl 4-methyl-2-[3-[[7-(5-methyl-1,2,4-oxadiazol-3-yl)-1-isoquinolyl]amino]propanoylamino]thiazole-5-carboxylate], for which the pIC50 is 7.43.

`Cc1nc(-c2ccc3ncnc(NCCC(=O)Nc4nc(C)c(C(C)(C)C)s4)c3c2)no1` [Example 47, N-(5-tert-butyl-4-methyl-thiazol-2-yl)-3-[[6-(5-methyl-1,2,4-oxadiazol-3-yl)quinazolin-4-yl]amino]propanamide formate]: the pIC50 is 6.83.
